Laboratory results: patent publication US20230391772A1, “METHODS AND COMPOSITIONS FOR TARGETED PROTEIN DEGRADATION” (Ranok Therapeutics (Hangzhou) Co. Ltd., priority 2020, published 2023)

Key:
HSP90a protein = target: T1, HSP90a protein (Homo sapiens, UniProt P07900); assay: HSP90α-binding fluorescent polarization (FP) assay, BODIPY-labeled RNK04010 probe; conditions: FP competition with RNK04010 (BODIPY-labeled), 5 nM, 300 min at 25° C.
T1 construct: purchased BPS Bioscience 50298
Procedure, shortened: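 Binding was scored by fluorescence polarization after adding N-terminal HSP90a to wells holding probe and compound, with compound tested from 20 μM to 5.2 nM. Probe-dependent times at 25° C were 120 min for FITC-geldanamycin and 300 min for RNK04010-BODIPY, both at 5 nM final.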

[1] = system: NCI-H358 human non-small cell lung cancer; assay: NCI-H358 CCK-8 proliferation assay; assay type: cell-based; conditions: NCI-H358 cells, 72 hr
Procedure, shortened: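 CCK-8 absorbance readout; % inhibition = 100 − (compound − blank)/(DMSO − blank) × 100, blank = medium + DMSO, no cells. Dose range 20 μM down to 1.02 nM, 3-fold steps. KRAS(G12C) copy number: MIA PaCa-2 2; NCI-H358 1; NCI-H23 1.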

| Compound | IC50 (HSP90a protein) | EC50 [1] |
| --- | --- | --- |
| CCC(=O)N1CCN(c2nc(NCCC(=O)NCc3ccc(-n4c(O)nnc4-c4cc(CC)c(O)cc4O)cc3F)nc3c2CCN(c2cc(O)cc4ccccc24)C3)CC1 [Compound 34, N-(4-(3-(5-ethyl-2,4-dihydroxyphenyl)-5-hydroxy-4H-1,2,4-triazol-4-yl)-2-fluorobenzyl)-3-((7-(3-hydroxynaphthalen-1-yl)-4-(4-propionylpiperazin-1-yl)-5,6,7,8-tetrahydropyrido[3,4-d]pyrimidin-2-yl)amino)propanamide, trifluoroacetic acid] | > 1000 nM | > 1000 nM |
| CC(=O)N1CCN(c2nc(NCCC(=O)NCCc3ccc(-n4c(O)nnc4-c4cc(C(C)C)c(O)cc4O)cc3)nc3c2CCN(c2cc(O)cc4ccccc24)C3)CC1 [Compound 22, 3-((4-(4-acetylpiperazin-1-yl)-7-(3-hydroxynaphthalen-1-yl)-5,6,7,8-tetrahydropyrido[3,4-d]pyrimidin-2-yl)amino)-N-(4-(3-(2,4-dihydroxy-5-isopropylphenyl)-5-hydroxy-4H-1,2,4-triazol-4-yl)phenethyl)propanamide, trifluoroacetic acid] | < 100 nM | > 1000 nM |
| C=CC(=O)N1CCN(c2nc(NCCC(=O)NCc3ccc(-n4c(O)nnc4-c4ccc(O)cc4O)cc3)nc3c2CCN(c2cc(O)cc4ccccc24)C3)CC1 [Compound 27, 3-((4-(4-acryloylpiperazin-1-yl)-7-(3-hydroxynaphthalen-1-yl)-5,6,7,8-tetrahydropyrido[3,4-d]pyrimidin-2-yl)amino)-N-(4-(3-(2,4-dihydroxyphenyl)-5-hydroxy-4H-1,2,4-triazol-4-yl)benzyl)propanamide, trifluoroacetic acid] | > 1000 nM | > 1000 nM |
| C=C(F)C(=O)N1CCN(c2nc(NCCC(=O)NCc3ccc(CN4CCC(Cc5ccc(-n6c(C(=O)NCC(F)(F)F)nnc6-c6cc(C(C)C)c(O)cc6O)cc5)CC4)cc3)nc3c2CCN(c2cc(O)cc4ccccc24)C3)CC1 [Compound 154, 5-(2,4-dihydroxy-5-isopropylphenyl)-4-(4-((1-(4-((3-((4-(4-(2-fluoroacryloyl)piperazin-1-yl)-7-(3-hydroxynaphthalen-1-yl)-5,6,7,8-tetrahydropyrido[3,4-d]pyrimidin-2-yl)amino)propanamido)methyl)benzyl)piperidin-4-yl)methyl)phenyl)-N-(2,2,2-trifluoroethyl)-4H-1,2,4-triazole-3-carboxamide] | 100 to 1000 nM | 100 to 1000 nM |
| C=CC(=O)N1CCN(c2nc(NCCC(=O)NCCOCCOCCOc3ccc(-n4c(O)nnc4-c4cc(C(C)C)c(O)cc4O)cc3)nc3c2CCN(c2cccc4cccc(Cl)c24)C3)C[C@@H]1CC#N [Compound 93, (S)-3-((4-(4-acryloyl-3-(cyanomethyl)piperazin-1-yl)-7-(8-chloronaphthalen-1-yl)-5,6,7,8-tetrahydropyrido[3,4-d]pyrimidin-2-yl)amino)-N-(2-(2-(2-(4-(3-(2,4-dihydroxy-5-isopropylphenyl)-5-hydroxy-4H-1,2,4-triazol-4-yl)phenoxy)ethoxy)ethoxy)ethyl)propanamide, trifluoroacetic acid] | 100 to 1000 nM | > 1000 nM |
| CCC(=O)N1CCN(c2nc(NCCC(=O)NCc3ccc(-n4c(O)nnc4-c4ccc(O)cc4O)cc3)nc3c2CCN(c2cc(O)cc4ccccc24)C3)CC1 [Compound 31, N-(4-(3-(2,4-dihydroxyphenyl)-5-hydroxy-4H-1,2,4-triazol-4-yl)benzyl)-3-((7-(3-hydroxynaphthalen-1-yl)-4-(4-propionylpiperazin-1-yl)-5,6,7,8-tetrahydropyrido[3,4-d]pyrimidin-2-yl)amino)propanamide, trifluoroacetic acid] | > 1000 nM | > 1000 nM |
| C=CC(=O)N1CCN(c2nc(NCCC(=O)NCCc3ccc(-n4c(O)nnc4-c4cc(C(C)C)c(O)cc4O)cc3)nc3c2CCN(c2cc(O)cc4ccccc24)C3)CC1 [Compound 4, 3-((4-(4-acryloylpiperazin-1-yl)-7-(3-hydroxynaphthalen-1-yl)-5,6,7,8-tetrahydropyrido[3,4-d]pyrimidin-2-yl)amino)-N-(4-(3-(2,4-dihydroxy-5-isopropylphenyl)-5-hydroxy-4H-1,2,4-triazol-4-yl)phenethyl)propanamide, trifluoroacetic acid] | 100 to 1000 nM | > 1000 nM |
| C=CC(=O)N1CCN(c2nc(NCCC(=O)NCC3CCN(C(=O)C4CCN(Cc5ccc(-n6c(O)nnc6-c6cc(CC)c(O)cc6O)cc5)CC4)CC3)nc3c2CCN(c2cccc4cccc(Cl)c24)C3)C[C@H]1CC#N [Compound 104, (R)-3-((4-(4-acryloyl-3-(cyanomethyl)piperazin-1-yl)-7-(8-chloronaphthalen-1-yl)-5,6,7,8-tetrahydropyrido[3,4-d]pyrimidin-2-yl)amino)-N-((1-(1-(4-(3-(5-ethyl-2,4-dihydroxyphenyl)-5-hydroxy-4H-1,2,4-triazol-4-yl)benzyl)piperidine-4-carbonyl)piperidin-4-yl)methyl)propanamide, trifluoroacetic acid] | < 100 nM | > 1000 nM |
| C=CC(=O)N1CCN(c2nc(NCCC(=O)NCCOCCOc3ccc(-n4c(O)nnc4-c4cc(C(C)C)c(O)cc4O)cc3)nc3c2CCN(c2cc(O)cc4ccccc24)C3)CC1 [Compound 72, trifluoroacetic acid] | < 100 nM | > 1000 nM |
| CCC(=O)N1CCN(c2nc(NCCC(=O)N3CCN(Cc4ccc(-n5c(O)nnc5-c5cc(C(C)C)c(O)cc5O)cc4)CC3)nc3c2CCN(c2cc(O)cc4ccccc24)C3)CC1 [Compound 35, 1-(4-(4-(3-(2,4-dihydroxy-5-isopropylphenyl)-5-hydroxy-4H-1,2,4-triazol-4-yl)benzyl)piperazin-1-yl)-3-((7-(3-hydroxynaphthalen-1-yl)-4-(4-propionylpiperazin-1-yl)-5,6,7,8-tetrahydropyrido[3,4-d]pyrimidin-2-yl)amino)propan-1-one, trifluoroacetic acid] | 100 to 1000 nM | > 1000 nM |
| CC(=O)N1CCN(c2nc(NCCC(=O)N3CCN(Cc4ccc5c(c4)CN(C(=O)c4cc(C(C)C)c(O)cc4O)C5)CC3)nc3c2CCN(c2cc(O)cc4ccccc24)C3)CC1 [Compound 56, 3-((4-(4-acetylpiperazin-1-yl)-7-(3-hydroxynaphthalen-1-yl)-5,6,7,8-tetrahydropyrido[3,4-d]pyrimidin-2-yl)amino)-1-(4-((2-(2,4-dihydroxy-5-isopropylbenzoyl)isoindolin-5-yl)methyl)piperazin-1-yl)propan-1-one, trifluoroacetic acid] | 100 to 1000 nM | > 1000 nM |
| C=CC(=O)N1CCN(c2nc(NCCC(=O)N3CCC(CN4CCN(Cc5ccc(-n6c(C(=O)NCC(F)(F)F)nnc6-c6cc(C)c(O)cc6O)cc5)CC4)CC3)nc3c2CCN(c2cccc4ccccc24)C3)C[C@H]1CC#N [Compound 77, (R)-4-(4-((4-((1-(3-((4-(4-acryloyl-3-(cyanomethyl)piperazin-1-yl)-7-(naphthalen-1-yl)-5,6,7,8-tetrahydropyrido[3,4-d]pyrimidin-2-yl)amino)propanoyl)piperidin-4-yl)methyl)piperazin-1-yl)methyl)phenyl)-5-(2,4-dihydroxy-5-methylphenyl)-N-(2,2,2-trifluoroethyl)-4H-1,2,4-triazole-3-carboxamide, trifluoroacetic acid] | 100 to 1000 nM | 100 to 1000 nM |
| C=CC(=O)N1CCN(c2nc(NCCC(=O)NCC3CCN(C(=O)C4CCN(Cc5ccc(-n6c(O)nnc6-c6cc(C(C)C)c(O)cc6O)cc5)CC4)CC3)nc3c2CCN(c2cccc4cccc(Cl)c24)C3)C[C@H]1CC#N [Compound 102, (R)-3-((4-(4-acryloyl-3-(cyanomethyl)piperazin-1-yl)-7-(8-chloronaphthalen-1-yl)-5,6,7,8-tetrahydropyrido[3,4-d]pyrimidin-2-yl)amino)-N-((1-(1-(4-(3-(2,4-dihydroxy-5-isopropylphenyl)-5-hydroxy-4H-1,2,4-triazol-4-yl)benzyl)piperidine-4-carbonyl)piperidin-4-yl)methyl)propanamide, trifluoroacetic acid] | < 100 nM | > 1000 nM |
| CCC(=O)N1CCN(c2nc(NCCC(=O)NCCOc3ccc(-n4c(O)nnc4-c4cc(C(C)C)c(O)cc4O)cc3)nc3c2CCN(c2cc(O)cc4ccccc24)C3)CC1 [Compound 51, N-(2-(4-(3-(2,4-dihydroxy-5-isopropylphenyl)-5-hydroxy-4H-1,2,4-triazol-4-yl)phenoxy)ethyl)-3-((7-(3-hydroxynaphthalen-1-yl)-4-(4-propionylpiperazin-1-yl)-5,6,7,8-tetrahydropyrido[3,4-d]pyrimidin-2-yl)amino)propanamide, trifluoroacetic acid] | 100 to 1000 nM | > 1000 nM |
| C=CC(=O)N1CCN(c2nc(NCCC(=O)N3CCN(Cc4ccc5c(c4)CN(C(=O)c4cc(CCC)c(O)cc4O)C5)CC3)nc3c2CCN(c2cc(O)cc4ccccc24)C3)CC1 [Compound 94, 1-(4-(2-((3-(4-((2-(2,4-dihydroxy-5-propylbenzoyl)isoindolin-5-yl)methyl)piperazin-1-yl)-3-oxopropyl)amino)-7-(3-hydroxynaphthalen-1-yl)-5,6,7,8-tetrahydropyrido[3,4-d]pyrimidin-4-yl)piperazin-1-yl)prop-2-en-1-one, trifluoroacetic acid] | > 1000 nM | > 1000 nM |
